Experiment [1] concerns the target T1, Serine/threonine-protein kinase pim-1 (Homo sapiens, UniProt P11309). Description: Inhibition of recombinant Pim1 with increasing concentration of ATP.
Target sequence in this assay (P11309 whole entry, looked up): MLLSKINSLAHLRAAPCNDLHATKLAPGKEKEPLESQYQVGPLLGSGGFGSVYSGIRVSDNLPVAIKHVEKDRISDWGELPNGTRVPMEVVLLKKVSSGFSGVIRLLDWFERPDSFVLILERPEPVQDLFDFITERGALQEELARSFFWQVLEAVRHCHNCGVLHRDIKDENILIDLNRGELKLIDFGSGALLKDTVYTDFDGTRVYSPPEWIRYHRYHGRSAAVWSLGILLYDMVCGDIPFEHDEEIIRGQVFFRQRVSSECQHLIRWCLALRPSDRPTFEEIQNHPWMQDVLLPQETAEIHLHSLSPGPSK
For experiment [2], the target named is T1, Serine/threonine-protein kinase pim-1. As to the kind of experiment: Inhibition of human recombinant Pim1 expressed in insect cells at 100 uM.
Target sequence in this assay (P11309 whole entry, looked up): as above
Experiment [3] has the same target. Description: Inhibition of recombinant Pim1 by scintillation counter.
Target sequence in this assay (P11309 whole entry, looked up): as above
Experiment [4] shares this target. Description: Inhibition of human recombinant Pim1 expressed in insect cells by HTRF.
Target sequence in this assay (P11309 whole entry): as the sequence (P11309 whole entry, looked up) above
Experiment [5] has as its system LNCaP. Description: Cell cycle arrest in human LNCAP cells assessed as accumulation at G1 phase at 10 uM after 72 hrs by cytofluorimetric assay. The class given is functional.
Experiment [6] concerns LNCaP. As to the kind of experiment: Cell cycle arrest in human LNCAP cells assessed as accumulation at G2 phase at 10 uM after 72 hrs by cytofluorimetric assay. Type of experiment: functional.
Experiment [7] relates to PC-3. Description: Cell cycle arrest in human PC3 cells assessed as accumulation at G2 phase at 10 uM after 72 hrs by cytofluorimetric assay. Type of experiment: functional.
The subject of experiment [8] is PC-3. Description: Cell cycle arrest in human PC3 cells assessed as accumulation at G1 phase at 10 uM after 72 hrs by cytofluorimetric assay. Type of experiment: functional.
The test system of experiment [9] is PC-3. Description: Cell cycle arrest in human PC3 cells assessed as accumulation at S phase at 10 uM after 72 hrs by cytofluorimetric assay. Type of experiment: functional.
The subject of experiment [10] is LNCaP. As to the kind of experiment: Antiproliferative activity against human LNCAP cells assessed as reduction in cell number after 72 hrs. The class given is functional, cell-based.
The subject of experiment [11] is LNCaP. Description: Cell cycle arrest in human LNCAP cells assessed as accumulation at S phase at 10 uM after 72 hrs by cytofluorimetric assay. The class given is functional.
In experiment [12] the test system is PC-3. Description: Antiproliferative activity against human PC3 cells assessed as reduction in cell number after 72 hrs. Type of experiment: functional, cell-based. To be noted: PC-3, 72 h.

Data on 13 compounds can be found in ChEMBL document CHEMBL1153898, “Indolyl-pyrrolone as a new scaffold for Pim1 inhibitors” (Bioorg Med Chem Lett, 2009).

Calls of active or inactive are those of the source. The rule behind the calls is not given here.

Regarding `CCOc1ccc(C2C(C(C)=O)=C(O)C(=O)N2CCc2c[nH]c3ccccc23)cc1` (stereo unspecified), the result in experiment [1] was Active. Further, the inhibition in experiment [2] was 71%. In addition, the ID50 in experiment [3] stood at 12 µM. In addition, in [4], the Ki was 4.2 µM.

`CC(=O)C1=C(O)C(=O)N(CCc2c[nH]c3ccccc23)C1c1cccc(O)c1` (stereo unspecified): the outcome in [1] was Active. Further, the inhibition in [2] is 84%. Besides, the ID50 in experiment [3] came out at 19 µM.

Turning to `C/C(=C/c1sc2ccccc2[n+]1CCO)C/C=C1/Sc2ccccc2N1CCO`, the inhibition in [2] is -4%.

As to `COC(=O)c1ccc(C2C(C(C)=O)=C(O)C(=O)N2CCc2c[nH]c3ccccc23)cc1` (stereo unspecified), in experiment [1], the outcome was Active. Further, in experiment [2], the inhibition amounted to 57%. Moreover, the ID50 in experiment [3] came to 13 µM.

For the compound `CN(C)CCCn1cc(C2=C(c3cn(C)c4ccccc34)C(=O)NC2=O)c2ccccc21`, the 50% inhibitory concentration (IC50) in experiment [4] was 0.15 µM.

For `CCc1ccc(C2C(C(C)=O)=C(O)C(=O)N2CCc2c[nH]c3ccccc23)cc1` (stereo unspecified), the outcome in experiment [1] was Active. The inhibition in [2] amounted to 79%. Besides, the Activity is on record as 39.47% in the experiment with LNCaP [5]; 25.61% with LNCaP [6]; 14.94% in the experiment with PC-3 [7]; 64.24% in the experiment with PC-3 [8]; 20.81% with PC-3 [9]; 34.92% in the experiment on LNCaP [11]. Moreover, in [3], the ID50 turned out to be 4.5 µM. Moreover, in experiment [4], the Ki worked out at 2.1 µM. Also, the concentration for half-maximal inhibition (IC50) amounted to 10.6 µM in the experiment with LNCaP [10] and 10.1 µM in the experiment on PC-3 [12].

As to `CN1C2C=C(N(CCc3c[nH]c4ccccc34)C(=O)c3ccc(Cl)cc3)CCC1CC2` (stereo unspecified), the inhibition in [2] was determined as 30%. Moreover, in [4], the 50% inhibitory concentration (IC50) is 2.1 µM.

As to `CC(Cc1ccccc1)NC(=O)C(c1ccc(N)cc1)c1ccc(N)cc1` (stereo unspecified), the inhibition in [2] was -7%.

Regarding `CC(=O)C1=C(O)C(=O)N(CCc2c[nH]c3ccccc23)C1c1ccc(C)cc1` (stereo unspecified), the outcome in experiment [1] was Active. In experiment [2], the inhibition was 54%. Moreover, in [3], the ID50 was determined as 10 µM.

Regarding `COc1cc(C2C(C(C)=O)=C(O)C(=O)N2CCc2c[nH]c3ccccc23)ccc1O` (stereo unspecified), the result in experiment [1] was Active. In experiment [2], the inhibition is 90%. Further, in [3], the ID50 worked out at 9.5 µM. Besides, the inhibition constant Ki in experiment [4] is 4.5 µM.

Regarding `O/N=C/c1ccccc1OCC(O)Cn1c2ccccc2c2ccccc21` (stereo unspecified), the inhibition in [2] worked out at 75%. Also, the 50% inhibitory concentration (IC50) in experiment [4] amounted to 16 µM.

Take `CC(=O)Nc1ccc(-c2csc(-c3c[nH]c4ccccc34)n2)cc1`: the inhibition in [2] came to 1%.

As to `CC(=O)C1=C(O)C(=O)N(CCc2c[nH]c3ccccc23)C1c1ccc(O)cc1` (stereo unspecified), the result in experiment [1] was Active. Also, the inhibition in experiment [2] amounted to 92%. Moreover, the ID50 in experiment [3] came out at 5.2 µM. Also, the Ki in experiment [4] turned out to be 2.2 µM.

A word on the inhibition: it is the relative decrease from the control value, in per cent. For orientation: Ki means a dissociation constant, usually derived from enzyme kinetics or from competition with a known ligand. The term IC50 denotes the concentration needed to halve the response being measured.
